Test results: DBAASP
≈ marks a conversion by molar mass, not a printed value.

Assays:
Assay in all cases: ≥ marks a high value that may be exact or a test limit, other limits are often not marked, values filed in µg/mL are converted to µM
[1] = system: Escherichia coli NCTC 10418
[2] = system: Staphylococcus aureus NCTC 10788
[3] = system: Pseudomonas aeruginosa ATCC 27853
[4] = system: Candida albicans NCYC 1467
[5] = system: Staphylococcus aureus NCTC 12493
[6] = system: Staphylococcus aureus ATCC 43300
[7] = system: Staphylococcus aureus ATCC BAA-1556
Escherichia coli JW0013 = system: Escherichia coli JW0013
[8] = system: Candida albicans F7-39/IDE99
Bacillus subtilis 168 = system: Bacillus subtilis 168
Escherichia coli B = system: Escherichia coli B
Pseudomonas aeruginosa = system: Pseudomonas aeruginosa
[9] = system: Micrococcus luteus CCM 144
Staphylococcus aureus = system: Staphylococcus aureus
[10] = system: Escherichia coli ATCC 35218
[11] = system: Pseudomonas aeruginosa ATCC 9027
[12] = system: Staphylococcus aureus ATCC 25923
[13] = system: Bacillus cereus ATCC 11778
[14] = system: Salmonella enterica subsp. enterica serovar Pullorum C79-13
[15] = system: Bacillus subtilis CMCC 63501
[16] = system: Staphylococcus epidermidis ATCC 12228
Escherichia coli UB1005 = system: Escherichia coli UB1005
[17] = system: Salmonella enterica subsp. enterica serovar Typhimurium ATCC 14028

## CSCC[C@H](NC(=O)[C@H](CC(=O)O)NC(=O)[C@@H](NC(=O)[C@@H](NC(=O)[C@H](C)NC(=O)[C@H](CC(N)=O)NC(=O)[C@H](CC(C)C)NC(=O)[C@H](C)NC(=O)[C@H](C)NC(=O)[C@H](CCCCN)NC(=O)CNC(=O)[C@H](C)NC(=O)[C@H](C)NC(=O)[C@H](CCCCN)NC(=O)CNC(=O)[C@@H](NC(=O)[C@H](CC(N)=O)NC(=O)[C@H](CCCCN)NC(=O)[C@H](Cc1ccccc1)NC(=O)[C@H](CC(C)C)NC(=O)[C@H](CO)NC(=O)[C@H](CCCCN)NC(=O)[C@H](Cc1c[nH]c2ccccc12)NC(=O)[C@H](CC(C)C)NC(=O)CN)C(C)C)C(C)C)[C@@H](C)O)C(=O)N[C@H](C(=O)N[C@@H](CC(N)=O)C(=O)N[C@@H](CCC(N)=O)C(N)=O)C(C)C [GLWKSLFKNVGKAAGKAALNAVTDMVNQ]
[1]
  MIC: 5.46 µM (≈ 16 µg/mL)
[2]
  MIC: 5.46 µM (≈ 16 µg/mL)
[3]
  MIC: 21.8 µM (≈ 64 µg/mL)
[4]
  MIC: 10.9 µM (≈ 32 µg/mL)
[5]
  MIC: 21.8 µM (≈ 64 µg/mL)
[6]
  MIC: 10.9 µM (≈ 32 µg/mL)

## CC(C)C[C@H](NC(=O)[C@H](CC(C)C)NC(=O)[C@H](CC(C)C)NC(=O)[C@H](CC(C)C)NC(=O)[C@H](CC(C)C)NC(=O)[C@H](CC(C)C)NC(=O)[C@H](CC(C)C)NC(=O)[C@@H](N)CCCCN)C(=O)N[C@@H](CCCCN)C(N)=O [KLLLLLLLK]
[7]
  MIC: ≥ 100 µM

## CC[C@H](C)[C@H](NC(=O)[C@H](CCCN=C(N)N)NC(=O)[C@@H](N)CCCCN)C(=O)N[C@@H](CCCN=C(N)N)C(=O)N1CCC[C@H]1C(=O)N[C@@H](CCCN=C(N)N)C(=O)N1CCC[C@H]1C(=O)N1CCC[C@H]1C(=O)N[C@@H](CCCN=C(N)N)C(=O)N[C@@H](CC(C)C)C(=O)N1CCC[C@H]1C(=O)N[C@@H](CCCN=C(N)N)C(=O)N1CCC[C@H]1C(=O)N[C@@H](CCCN=C(N)N)C(=O)N1CCC[C@H]1C(=O)N[C@@H](CCCN=C(N)N)C(=O)O [KRIRPRPPRLPRPRPR]
Escherichia coli JW0013
  MIC: 0.3 µM (≈ 0.615 µg/mL)

## CC(C)C[C@H](NC(=O)[C@H](CC(C)C)NC(=O)[C@H](CC(C)C)NC(=O)[C@H](CCCCN)NC(=O)[C@H](CC(C)C)NC(=O)[C@H](CC(C)C)NC(=O)[C@H](CC(C)C)NC(=O)[C@H](CCCCN)NC(=O)[C@@H](N)CC(C)C)C(N)=O [LKLLLKLLL]
[7]
  MIC: ≥ 100 µM

## CC[C@H](C)[C@H](NC(=O)[C@H](C)NC(=O)CNC(=O)[C@H](Cc1c[nH]c2ccccc12)NC(=O)[C@H](CCCCN)NC(=O)[C@@H](N)CC(C)C)C(=O)N[C@@H](CC(C)C)C(=O)N[C@@H](CCCCN)C(=O)N[C@@H](Cc1cnc[nH]1)C(=O)N[C@H](C(=O)N[C@H](C(=O)N[C@@H](CCCCN)C(N)=O)[C@@H](C)CC)[C@@H](C)CC [LKWGAILKHIIK]
[8]
  MIC: 5.1 µM (≈ 7.24 µg/mL)
Bacillus subtilis 168
  MIC: 3.7 µM (≈ 5.25 µg/mL)
Escherichia coli B
  MIC: 3.7 µM (≈ 5.25 µg/mL)
Pseudomonas aeruginosa
  MIC: 46.7 µM (≈ 66.3 µg/mL)
[9]
  MIC: 3.7 µM (≈ 5.25 µg/mL)
Staphylococcus aureus
  MIC: 11.7 µM (≈ 16.6 µg/mL)

## CC(C)C[C@H](NC(=O)[C@H](CCCCN)NC(=O)[C@H](CC(C)C)NC(=O)[C@H](CC(C)C)NC(=O)[C@H](CC(C)C)NC(=O)[C@H](CC(C)C)NC(=O)[C@H](CC(C)C)NC(=O)[C@@H](N)CC(C)C)C(=O)N[C@@H](CCCCN)C(N)=O [LLLLLLKLK]
[7]
  MIC: ≥ 100 µM

## CC(C)C[C@H](NC(=O)[C@H](C)NC(=O)[C@H](C)NC(=O)CNC(=O)[C@H](Cc1c[nH]c2ccccc12)NC(=O)[C@H](CC(N)=O)NC(=O)[C@@H](N)CC(C)C)C(=O)N[C@@H](CCCCN)C(=O)N[C@@H](Cc1cnc[nH]1)C(=O)N[C@@H](C)C(=O)N[C@@H](C)C(=O)N[C@@H](CCCCN)C(N)=O [LNWGAALKHAAK]
[8]
  MIC: ≥ 100 µM
Bacillus subtilis 168
  MIC: ≥ 100 µM
Escherichia coli B
  MIC: ≥ 100 µM
Pseudomonas aeruginosa
  MIC: > 100 µM
[9]
  MIC: ≥ 100 µM
Staphylococcus aureus
  MIC: > 100 µM

## CC(C)C[C@H](NC(=O)[C@H](CC(C)C)NC(=O)[C@@H](N)[C@@H](C)O)C(=O)N[C@@H](CCCCN)C(=O)N[C@@H](CCCCN)C(=O)N[C@H](C(=O)N[C@@H](CC(C)C)C(=O)N[C@@H](CCCCN)C(=O)N[C@@H](C)C(=O)N[C@@H](C)C(=O)N[C@@H](C)C(N)=O)C(C)C [TLLKKVLKAAA]
[10]
  MIC: ≥ 50 µM
[11]
  MIC: > 50 µM
[12]
  MIC: > 50 µM
[13]
  MIC: ≥ 50 µM

## CC[C@H](C)[C@H](NC(=O)[C@@H]1CCCN1C(=O)[C@H](CCCCN)NC(=O)[C@@H]1CCCN1C(=O)[C@@H]1CCCN1C(=O)[C@@H](NC(=O)[C@@H]1CCCN1C(=O)[C@H](CCCN=C(N)N)NC(=O)[C@@H]1CCCN1C(=O)[C@H](CC(C)C)NC(=O)[C@H](Cc1ccc(O)cc1)NC(=O)[C@H](CO)NC(=O)CNC(=O)[C@H](CCCCN)NC(=O)[C@H](CC(=O)O)NC(=O)[C@@H](N)C(C)C)[C@@H](C)O)C(=O)N[C@@H](Cc1ccc(O)cc1)C(=O)N[C@@H](CC(N)=O)C(=O)N[C@@H](CCCN=C(N)N)C(=O)N[C@@H](CC(N)=O)C(=O)O [VDKGSYLPRPTPPKPIYNRN]
Escherichia coli JW0013
  MIC: 0.3 µM (≈ 0.694 µg/mL)

## CC[C@H](C)[C@H](NC(=O)[C@@H]1CCCN1C(=O)[C@H](CCCN=C(N)N)NC(=O)[C@@H]1CCCN1C(=O)[C@@H]1CCCN1C(=O)[C@@H](NC(=O)[C@@H]1CCCN1C(=O)[C@H](CCCN=C(N)N)NC(=O)[C@@H]1CCCN1C(=O)[C@H](CCCN=C(N)N)NC(=O)[C@H](Cc1ccc(O)cc1)NC(=O)[C@H](CO)NC(=O)CNC(=O)[C@H](CCCCN)NC(=O)[C@H](CC(=O)O)NC(=O)[C@@H](N)C(C)C)[C@@H](C)O)C(=O)N[C@@H](Cc1ccc(O)cc1)C(=O)N[C@@H](CC(N)=O)C(=O)N[C@@H](CCCN=C(N)N)C(=O)N[C@@H](CC(N)=O)C(=O)O [VDKGSYRPRPTPPRPIYNRN]
Escherichia coli JW0013
  MIC: 0.3 µM (≈ 0.715 µg/mL)

## CC[C@H](C)[C@H](NC(=O)[C@H](CCCN=C(N)N)NC(=O)[C@H](CCCN=C(N)N)NC(=O)[C@@H]1CCCN1C(=O)[C@@H]1CCCN1C(=O)[C@H](CCCN=C(N)N)NC(=O)[C@@H]1CCCN1C(=O)[C@H](CCSC)NC(=O)[C@@H]1CCCN1C(=O)[C@H](CC(C)C)NC(=O)[C@H](Cc1ccc(O)cc1)NC(=O)[C@@H]1CCCN1C(=O)[C@@H]1CCCN1C(=O)[C@H](CCCCN)NC(=O)[C@H](CC(=O)O)NC(=O)[C@@H](N)C(C)C)C(=O)N[C@@H](Cc1ccc(O)cc1)C(=O)N[C@@H](CC(N)=O)C(=O)N[C@@H](CCCN=C(N)N)C(N)=O [VDKPPYLPMPRPPRRIYNR]
Escherichia coli JW0013
  MIC: 2.03 µM (≈ 4.8 µg/mL)

## CC[C@H](C)[C@H](NC(=O)[C@H](CCCN=C(N)N)NC(=O)[C@H](CCCN=C(N)N)NC(=O)[C@@H]1CCCN1C(=O)[C@@H]1CCCN1C(=O)[C@H](CCCN=C(N)N)NC(=O)[C@H](CCCN=C(N)N)NC(=O)[C@H](CCCN=C(N)N)NC(=O)[C@@H]1CCCN1C(=O)[C@H](CC(C)C)NC(=O)[C@H](CCCN=C(N)N)NC(=O)[C@@H]1CCCN1C(=O)[C@H](CCCN=C(N)N)NC(=O)[C@H](CCCCN)NC(=O)[C@H](CC(=O)O)NC(=O)[C@@H](N)C(C)C)C(=O)N[C@@H](Cc1ccc(O)cc1)C(=O)N[C@@H](CC(N)=O)C(=O)N[C@@H](CCCN=C(N)N)C(N)=O [VDKRPRLPRRRPPRRIYNR]
Escherichia coli JW0013
  MIC: 0.959 µM (≈ 2.4 µg/mL)

## CC(C)C[C@H](NC(=O)[C@H](CC(C)C)NC(=O)[C@H](CCCCN)NC(=O)[C@H](CC(C)C)NC(=O)[C@H](CC(C)C)NC(=O)[C@@H](N)Cc1c[nH]c2ccccc12)C(N)=O [WLLKLL]
[7]
  MIC: ≥ 100 µM

## CC(=O)N[C@@H](Cc1c[nH]c2ccccc12)C(=O)N[C@@H](CCCN=C(N)N)C(=O)N[C@@H](CCCCN)C(=O)N[C@@H](CC(C)C)C(=O)N[C@@H](Cc1c[nH]c2ccccc12)C(=O)N[C@@H](CCCN=C(N)N)C(=O)NCC(=O)NCC(=O)N[C@@H](CC(C)C)C(=O)N[C@@H](CCCCN)C(=O)N[C@@H](CCCN=C(N)N)C(=O)N[C@@H](Cc1c[nH]c2ccccc12)C(=O)N[C@@H](CC(C)C)C(=O)N[C@@H](CCCCN)C(N)=O [WRKLWRGGLKRWLK]
[3]
  MIC: 8 µM (≈ 15.4 µg/mL)
[14]
  MIC: 2 µM (≈ 3.85 µg/mL)
[15]
  MIC: 8 µM (≈ 15.4 µg/mL)
[16]
  MIC: 16 µM (≈ 30.8 µg/mL)
Escherichia coli UB1005
  MIC: 4 µM (≈ 7.7 µg/mL)
[12]
  MIC: 8 µM (≈ 15.4 µg/mL)
[6]
  MIC: 4 µM (≈ 7.7 µg/mL)
[17]
  MIC: 8 µM (≈ 15.4 µg/mL)

## CC(C)C[C@H](NC(=O)[C@H](Cc1c[nH]c2ccccc12)NC(=O)[C@H](Cc1c[nH]c2ccccc12)NC(=O)[C@H](CC(C)C)NC(=O)[C@H](CCCN=C(N)N)NC(=O)[C@H](Cc1c[nH]c2ccccc12)NC(=O)[C@H](CC(C)C)NC(=O)[C@H](Cc1c[nH]c2ccccc12)NC(=O)[C@@H](N)Cc1c[nH]c2ccccc12)C(N)=O [WWLWRLWWL]
[7]
  MIC: 3.12 µM (≈ 4.51 µg/mL)
